Measured values: US9725439B2, “Quinazoline derivative and preparation method therefor” (CHIA TAI TIANQING PHARMACEUTICAL GROUP CO., LTD., priority 2013, dated 2017)

Tests used:
[1] = system: BT474, a human breast cancer cell line; assay: Proliferation test of anchorage-independent cells; type: cell-based; conditions: BT-474, 168 h, BT474, soft agarose, 7 days, CellTiter-Blue
Method: (§1) 2. Proliferation Test of Anchorage-Independent Cells
(§2) NCI-H1975, a human non-small cell lung cancer cell, and BT474, a human breast cancer cell line, were incubated with RPIM-1640 or DMEM medium supplemented with 10% fetal bovine serum (FBS) in a cell incubator (37° C., 5% CO2). In the test of the compounds, the coated substrate with a concentration of 0.6% was used. The cells were screened with 0.3% low melting point agarose, then plated into 96-well plates with a density of 10,000 cells per well (100 μL). Starting from 10 mM, the compounds were diluted in a gradient of 3 times. For each concentration, 2 μL of the solution was taken and added into 98 μL of medium, then 5.3 μL of the mixture was added into the cell culture medium (where the final concentration of DMSO was 0.1%, v/v). After one week (7 days) of treatment, 20 μL of CellTiter-Blue®reagent (Promega) was added, incubated at 37° C. for 4 h. The fluorescent signal was read on Envison (Perkin Elmer).

[2] = system: NCI-H1975, a human non-small cell lung cancer cell; assay: Proliferation test of anchorage-independent cells; type: cell-based; conditions: 168 h, NCI-H1975, soft agarose, 7 days, CellTiter-Blue
Method: as §1, §2

HER2 = HER2 (Homo sapiens (Human), UniProt P04626); assay: In vitro enzymology test (HTRF kinase activity); type: biochemical; conditions: read-out: Enzyme activity (IC50 nM) HER2
Sequence of HER2 (P04626 23-1255): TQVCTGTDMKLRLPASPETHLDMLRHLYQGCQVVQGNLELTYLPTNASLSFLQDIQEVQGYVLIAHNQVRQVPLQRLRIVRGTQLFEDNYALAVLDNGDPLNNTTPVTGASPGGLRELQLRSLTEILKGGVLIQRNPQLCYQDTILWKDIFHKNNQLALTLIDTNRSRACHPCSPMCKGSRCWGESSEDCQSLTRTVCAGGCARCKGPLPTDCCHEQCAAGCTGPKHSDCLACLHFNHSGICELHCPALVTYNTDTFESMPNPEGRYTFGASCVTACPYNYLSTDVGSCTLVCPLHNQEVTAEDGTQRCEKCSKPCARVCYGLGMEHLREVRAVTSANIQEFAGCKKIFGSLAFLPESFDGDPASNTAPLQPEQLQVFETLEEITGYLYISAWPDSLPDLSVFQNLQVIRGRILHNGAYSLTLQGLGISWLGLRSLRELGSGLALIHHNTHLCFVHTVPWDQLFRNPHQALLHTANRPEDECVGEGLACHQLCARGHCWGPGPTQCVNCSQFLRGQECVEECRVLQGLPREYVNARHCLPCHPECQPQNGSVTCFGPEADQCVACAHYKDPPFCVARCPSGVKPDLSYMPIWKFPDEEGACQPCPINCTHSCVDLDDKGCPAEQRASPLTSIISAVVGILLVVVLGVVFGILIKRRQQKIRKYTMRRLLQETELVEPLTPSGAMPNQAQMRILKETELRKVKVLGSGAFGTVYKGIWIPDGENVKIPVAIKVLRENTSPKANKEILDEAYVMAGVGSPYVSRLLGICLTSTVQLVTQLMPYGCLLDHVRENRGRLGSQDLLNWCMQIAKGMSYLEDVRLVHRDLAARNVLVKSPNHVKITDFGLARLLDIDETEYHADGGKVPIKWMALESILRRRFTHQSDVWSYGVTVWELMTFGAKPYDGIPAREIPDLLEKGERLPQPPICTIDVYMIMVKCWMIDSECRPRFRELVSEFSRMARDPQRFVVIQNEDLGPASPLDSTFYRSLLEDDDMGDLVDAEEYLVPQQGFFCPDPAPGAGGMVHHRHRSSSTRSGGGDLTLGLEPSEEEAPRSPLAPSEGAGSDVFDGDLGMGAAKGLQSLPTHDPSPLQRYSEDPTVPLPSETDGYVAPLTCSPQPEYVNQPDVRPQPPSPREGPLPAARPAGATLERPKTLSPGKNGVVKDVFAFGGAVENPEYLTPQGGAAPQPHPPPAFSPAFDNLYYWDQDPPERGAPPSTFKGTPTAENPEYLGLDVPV
Description: 1. The Method for In Vitro Enzymology Test
EGFR, EGFR (T790M, L858R), HER2 kinase were expressed and purified through an insect cell expression system by the Department of Biology, Centaurus Biopharma, Beijing, or purchased from commercially available products.
The platform for testing the kinase activity of EGFR, EGFR (T790M, L858R) and HER2 was established based on the homogeneous time-resolved fluorescence (HTRF) method provided by Cisbio Bioassays, and the activity of the compounds was determined with the platform. […]. And 2.5 μL of the mixture was taken, added into 384-well plates (OptiPlate-384, PerkinElmer), then 2.5 μL of kinase was added, mixed thoroughly by centrifuge. Then 5 μL of ATP and TK Substrate-biotin were added to initiate the reaction. The 384-well plates were incubated at 23° C. in an incubator for a certain period of time, then 5 μL of Eu3^+-Cryptate labeled TK-Antibody and 5 μL of streptavidin-XL665 were added to stop the reaction. After 1 h incubation in an incubator, the fluorescence value was read on Envision (PerkinElmer). The IC50 value of the compound was calculated with the software GraphPad Prism 5.0.

[3] = Pharmacokinetics test on rats; type: in vivo; conditions: rat, po; male rats, gavage, single dose 5 mg/kg, plasma
Method: Pharmacokinetics Test on Rats
In this study, 6 healthy adult male rats (from Beijing Vital River Laboratory Animal Technology Co., Ltd.) were used. The animals were fast overnight before the experiment. The fasting period was from 12 h prior to the administration, till 4 h after the administration. Drug administration was performed through gavage at a single dose of 5 mg/kg. The compounds to be tested were dissolved in 20% aqueous solution of sulfobutyl-β-cyclodextrin (SBE). Blood samples were collected 0.25, 0.5, 1, 2, 4, 6, 8 and 24 hours after drug administration. During blood sampling, the animals were lightly anesthetized with isoflurane, and approximately 0.5 mL whole blood was collected from retro-orbital venous sinus, placed into tubes that contain heparin as anticoagulant. The samples were centrifuged at 4° C., 4000 rpm for 5 min. The plasma was transferred into centrifuge tubes, and stored at −80° C. till being analyzed. The drug concentration in the plasma was quantitatively analyzed with liquid chromatography-tandem mass spectrometry (LC-MS/MS). From the analysis result of the samples, the pharmacokinetic parameter of the compounds was calculated with WinNonlin (WinNonlin Professional, version […]).

| Structure (SMILES) | IC50 [1] | IC50 [2] | IC50 (HER2) | AUC(0-inf) [3] | Cmax [3] | Tmax [3] | half-life [3] |
| --- | --- | --- | --- | --- | --- | --- | --- |
| C=CC(=O)N1CCC(Nc2cc3c(Nc4ccc(F)c(Cl)c4)ncnc3cc2O[C@H]2CCOC2)CC1 [Example 4, (S)—N^6-(1-acryloylpiperidin-4-yl)-N^4-(3-chloro-4-fluorophenyl)-7-(tetrahydrofuran-3-yloxy)quinazoline-4,6-diamine] | 1.6 nM | 25.6 nM | 0.4 nM | – | – | – | – |
| C=CC(=O)N1CC(Nc2cc3c(Nc4ccc(F)c(Cl)c4)ncnc3cc2OCCOC)C1 [Example 16, N^6-(1-acryloylazetidin-3-yl)-N^4-(3-chloro-4-fluorophenyl)-7-(2-methoxyethoxy)quinazoline-4,6-diamine] | 8.7 nM | 32.4 nM | 0.3 nM | – | – | – | – |
| C=CC(=O)N1CCC(Nc2cc3c(Nc4cccc(Br)c4)ncnc3cc2OC)CC1 [Example 15, N^6-(1-acryloylpiperidin-4-yl)-N^4-(3-bromophenyl)-7-methoxyquinazoline-4,6-diamine] | 4.2 nM | 56 nM | 0.2 nM | – | – | – | – |
| C=CC(=O)N1CCC(Nc2cc3c(Nc4ccc(F)c(Cl)c4)ncnc3cc2OCCOC)CC1 [Example 17, N^6-(1-acryloylpiperidin-4-yl)-N^4-(3-chloro-4-fluorophenyl)-7-(2-methoxyethoxy)quinazoline-4,6-diamine] | 4.7 nM | 71.5 nM | 0.4 nM | – | – | – | – |
| C=CC(=O)N1CC(Nc2cc3c(Nc4ccc(F)c(Cl)c4)ncnc3cc2OC)C1 [Example 1, N^6-(1-acryloylazetidin-3-yl)-N^4-(3-chloro-4-fluorophenyl)-7-methoxyquinazoline-4,6-diamine] | 4.2 nM | 21.8 nM | 0.5 nM | 1350 ng·h/mL | 588 ng/mL | 0.5 h | 1.3 h |
| C=CC(=O)N1CC(Nc2cc3c(Nc4ccc(F)c(Cl)c4)ncnc3cc2O[C@H]2CCOC2)C1 [Example 3, (S)—N^6-(1-acryloylazetidin-3-yl)-N^4-(3-chloro-4-fluorophenyl)-7-(tetrahydrofuran-3-yloxy)quinazoline-4,6-diamine] | 5.1 nM | 31.4 nM | 0.3 nM | – | – | – | – |
| C=CC(=O)N1CC(Nc2cc3c(Nc4cccc(C(C)=O)c4)ncnc3cc2OC)C1 [Example 13, N^4-(3-acetylphenyl)-N^6-(1-acryloylazetidin-3-yl)-7-methoxyquinazoline-4,6-diamine] | – | – | 0.5 nM | – | – | – | – |

More lines, now with the values ahead:

| IC50 [1] | IC50 [2] | IC50 (HER2) | AUC(0-inf) [3] | Cmax [3] | Tmax [3] | half-life [3] | Structure (SMILES) |
| --- | --- | --- | --- | --- | --- | --- | --- |
| 97.1 nM | 274 nM | – | – | – | – | – | C=CC(=O)N1CC(Sc2cc3c(Nc4ccc(F)c(Cl)c4)ncnc3cc2OC)C1 [Example 19, 6-(1-acryloylazetidin-3-yl)-thio-N-(3-chloro-4-fluorophenyl)-7-methoxyquinazoline-4-amine] |
| 62.1 nM | 244 nM | 1.2 nM | – | – | – | – | C=CC(=O)N1CCC(Nc2cc3c(Nc4ccc(OCc5ccccn5)c(Cl)c4)ncnc3cc2OC)CC1 [Example 8, 1-(4-(4-(3-chloro-4-(pyridin-2-ylmethoxy)phenylamino)-7-methoxyquinazoline-6-ylamino)piperidin-1-yl)prop-2-ene-1-one] |
| 4.6 nM | 59.3 nM | 0.2 nM | – | – | – | – | C=CC(=O)N1CC(Nc2cc3c(Nc4cccc(Br)c4)ncnc3cc2OC)C1 [Example 14, N^6-(1-acryloylazetidin-3-yl)-N^4-(3-bromophenyl)-7-methoxyquinazoline-4,6-diamine] |
| 2.1 nM | 14 nM | 0.2 nM | 11000 ng·h/mL | 1970 ng/mL | 1 h | 2.39 h | C=CC(=O)N1CCC(Nc2cc3c(Nc4ccc(F)c(Cl)c4)ncnc3cc2OC)CC1 [Example 2, N^6-(1-acryloylpiperidin-4-yl)-N^4-(3-chloro-4-fluorophenyl)-7-methoxyquinazoline-4,6-diamine] |
